Source: patent publication US10987357B2, “Aerosolized fluoroquinolones and uses thereof” (Horizon Orphan, LLC, priority 2005, dated 2021)
Several values for one entry are separate records, joined by “and”; a condition that tells them apart may be missing. Identical values can stand only once. Counter-ions that a name gives are not always drawn. Like-named read-outs stand apart in the source and are kept apart here.

Key:
elastase = settings: cited from earlier work
[1] = in vivo
Procedure: In the second test, the tolerability and taste of a small aerosol sample from a 0.5 ml aliquot of the test formulation was determined in a single healthy human volunteer, following nebulization in a PARI eFlow nebulizer (Table 12).
The tolerability and taste of the drug during a very brief administration period and for a period of 10 minutes post administration were monitored. Tolerability parameters were of the following types: (i) cough, cough sensation, or sneezing (ii) irritation, burning or tightness of throat, (ii) irritation or runniness in nasal passages or eyes, (iii) irritation, burning or tightness of the lungs or shortness of breadth, and (iv) dizziness, headache, nausea or other systemic effects.

[2] = in vivo; cited from earlier work
MSSA = settings: Table 6; cited from earlier work
[3] = tested on: methicillin resistant Staphylococcus aureus (MRSA); settings: cited from earlier work; for MRSA MIC90: Table 6
[4] = tested on: Streptococcus pneumonia (Sp); settings: Table 6; cited from earlier work
[5] = tested on: Pseudomonas aeruginosa (Pa); settings: cited from earlier work; for Pa MIC90: Table 6
[6] = tested on: P. aeruginosa strain PAM 1723; experiment: Mouse lung infection efficacy model; settings: Pseudomonas aeruginosa, PAM1723, in Mus musculus
Procedure: The inoculum is adjusted to ca. 5×10^6 CFU/ml by correlation of absorbance at 600 nm with predetermined plate counts. […] On day 5, mice are infected by an intratracheal instillation of 0.05 ml of inoculum while under isoflurane anesthesia (5% isoflurane in oxygen running at 4 L/min). […] Mice are sacrificed 1 and 4 hours after treatment, their lungs removed, homogenized and plated to determine colony counts.

[7] = in vivo; cited from earlier work; remark: listed apart in the source
[8] = 750 mg oral dose; cited from earlier work
physchem = settings: for Initial Solution pH / Initial Solution Appearance: 10 mg/mL in sterile water; for Initial Solution Appearance: room temperature; for After pH Adjustment Appearance / After pH Adjustment pH / pH of final solution: 10 mg/mL; for After pH Adjustment Appearance / After pH Adjustment pH: titrated with 1N HCl; for solubility at 10 min: aqueous buffer, thermodynamic from solid
Procedure: A 2 to 20 mg sample of each antibiotic was weighed into sterile plastic tubes and brought up with a volume of sterile water to make a 10 mg/mL solution or suspension of the antibiotic. Samples were incubated for approximately 10 minutes at room temperature with occasional mixing, prior to further handling.
The insoluble solutions were titrated with 1N HCl to the point of visible solubility, and the pH of the solubilized solution determined.
After the pH adjustment, and following a further 10 minute incubation period with occasional mixing, the final appearance of the solutions was determined, just prior to the aerosol tolerability and taste test.

[9] = Rat pharmacokinetic model (IV vs microspray aerosol, intratracheal); type: in vivo, rats; settings: for AUC: epithelial lining fluid (ELF)
Procedure: […] Blood samples are taken at various times over 3 hours to determine the plasma pharmacokinetic parameters. […] The plasma and tissue concentrations are determined by an HPLC method and the data are then fit using WinNonlin.

[10] = Gemifloxacin formulations with organic bases: pH and osmolality; type: physicochemical; settings: before pH adjustment
From the text: (§1) It was filtered through a 0.45 micron filter.
as §1, §1, §1, §1

[11] = cited from earlier work
Dissolution rate studies = settings: 37° C.
[12] = 1 h, read-out: DeltaLOG CPU 1 hr, route IT, dose 25 mg/kg, 1 hr post-drug administration
[13] = 4 h, read-out: DeltaLOG CPU 4 hr, route IT, dose 25 mg/kg, 4 hr post-drug administration
[14] = ip, 1 h, read-out: DeltaLOG CPU 1 hr, route IP, dose 25 mg/kg, 1 hr post-drug administration
[15] = ip, 4 h, read-out: DeltaLOG CPU 4 hr, route IP, dose 25 mg/kg, 4 hr post-drug administration
[16] = rat, inhaled or intranasal, IT, 10 mg/kg
[17] = 2-10 minutes, 500 ml pH 7.4 Tris buffer, paddles 100 rpm
[18] = 10-30 minutes, pH 7.4 Tris buffer

Molecule: O=C(O)CCCC[C@@H](S)CCS (racemic) [DHLA, dihydrolipoic acid]
- effect on elastase activity after treatment of CF sputum (elastase): did not increase elastase activity

Molecule: CC1COc2c(N3CCN(C)CC3)c(F)cc3c(=O)c(C(=O)O)cn1c23 (racemic) [Ofloxacin]
- Aerosol Tolerability and Taste [1]: bitter chemical taste, mild cough sensation
- distribution into sputum [2]: 79%

Molecule: O=C(O)c1cn(C2CC2)c2cc(N3CCNCC3)c(F)cc2c1=O [Ciprofloxacin]
- MSSA MIC90 (MSSA): 1 µg/mL
- MRSA MIC90 [3]: 64 µg/mL
- SP MIC90 [4]: 2 µg/mL
- Aerosol Tolerability and Taste [1]: very strong, bitter unpleasant
- Pa MIC90 [5]: 8 µg/mL
- rank of potency against Pa [5]: most potent
- log reduction at 25 mg/kg [6, 12]: 2.32
- log reduction at 25 mg/kg [6, 13]: 1.45
- log reduction at 25 mg/kg [6, 14]: 1.59
- log reduction at 25 mg/kg [6, 15]: 0.41
- penetration into lung tissues [7]: much less efficiently than levofloxacin
- peak concentration, serum [8]: ~4.2 µg/mL
- time of peak drug concentration, serum [8]: 1.5 h

Molecule: COc1c(N2CCNC(C)C2)c(F)cc2c(=O)c(C(=O)O)cn(C3CC3)c12 (stereo not drawn) [Gatifloxacin]
- MSSA MIC90 (MSSA): 0.125 µg/mL
- MRSA MIC90 [3]: 4 µg/mL
- SP MIC90 [4]: 0.5 µg/mL
- Aerosol Tolerability and Taste [1]: moderate bitter unpleasant taste,
- cough on aerosol exposure [1]: associated with cough
- Pa MIC90 [5]: 16 µg/mL
- rank of potency against Pa [5]: most potent
- log reduction at 25 mg/kg [6, 12]: 1.48
- log reduction at 25 mg/kg [6, 13]: 2.11
- log reduction at 25 mg/kg [6, 14]: 0.34
- log reduction at 25 mg/kg [6, 15]: 0.02
- Initial Solution pH (physchem): 7.0
- Initial Solution Appearance (physchem): white, cloudy, visible
- After pH Adjustment Appearance (physchem): slight yellow color,
- After pH Adjustment pH (physchem): 3.0
- solubility at 10 min (physchem): > 10000 µg/mL
- pH of final solution (physchem): 3.0
- F, % from Lung vs. IV ([9]; IT, 10 mg/kg): 100%
- AUC [9, 16]: 54700 ng·h/mL
- AUC ([9]; rat, iv, 10 mg/kg): 5320 ng·h/mL

Molecule: CO/N=C1\CN(c2nc3c(cc2F)c(=O)c(C(=O)O)cn3C2CC2)CC1CN (stereo not drawn) [Gemifloxacin mesylate]
- pH of filtered solution in water [10]: 4.28 and 4.21 and 4.40 and 4.32 and 4.20

Molecule: CO/N=C1\CN(c2nc3c(cc2F)c(=O)c(C(=O)O)cn3C2CC2)CC1CN (stereo not drawn) [Gemifloxacin]
- MSSA MIC90 (MSSA): 0.06 µg/mL
- MRSA MIC90 [3]: 2 µg/mL
- rank of potency against MRSA [3]: most potent
- SP MIC90 [4]: 0.06 µg/mL
- Aerosol Tolerability and Taste [1]: strong unpleasant bitter taste, strong
- Pa MIC90 [5]: 8 µg/mL
- rank of potency against Pa [5]: most potent
- log reduction at 25 mg/kg [6, 12]: 3.2
- log reduction at 25 mg/kg [6, 13]: 2.28
- Initial Solution pH (physchem): 4.7
- Initial Solution Appearance (physchem): colorless, transparent, no
- solubility at 10 min (physchem): > 10000 µg/mL
- F, % from Lung vs. IV ([9]; IT, 10 mg/kg): 86%
- AUC [9, 16]: 536000 ng·h/mL
- AUC ([9]; rat, iv, 8 mg/kg): 3720 ng·h/mL
- half-life ([9]; rat, serum, iv, 8 mg/kg, read-out: Serum t1/2 (converted)): 1.04 h

Molecule: CCn1cc(C(=O)O)c(=O)c2cc(F)c(N3CCNC(C)C3)c(F)c21 (stereo not drawn) [Lomefloxacin]
- MSSA MIC90 (MSSA): 2 µg/mL
- MRSA MIC90 [3]: >32 µg/mL
- SP MIC90 [4]: 16 µg/mL
- Aerosol Tolerability and Taste [1]: chemical taste, somewhat bitter,
- Pa MIC90 [5]: 32 µg/mL
- Initial Solution pH (physchem): 4.2
- Initial Solution Appearance (physchem): cloudy, visible sediment
- After pH Adjustment Appearance (physchem): transparent, no sediment,
- solubility at 10 min (physchem): > 10000 µg/mL
- pH of final solution (physchem): 4.2

Molecule: C[C@@H]1CN(c2c(F)c(F)c3c(=O)c(C(=O)O)cn(C4CC4)c3c2F)C[C@H](C)N1 [Orbifloxacin]
- MSSA MIC90 (MSSA): 2 µg/mL
- SP MIC90 [4]: 2 µg/mL
- Aerosol Tolerability and Taste [1]: very acidic, strong bitter unpleasant
- cough on aerosol exposure [1]: associated with cough
- Pa MIC90 [5]: >32 µg/mL
- Initial Solution Appearance (physchem): white, cloudy, visible
- After pH Adjustment Appearance (physchem): colorless, transparent, no
- After pH Adjustment pH (physchem): 1.7
- solubility at 10 min (physchem): > 10000 µg/mL
- pH of final solution (physchem): 1.7

Molecule: NC1CCN(c2nc3c(cc2F)c(=O)c(C(=O)O)cn3-c2ccc(F)cc2F)C1 (stereo not drawn) [Tosufloxacin]
- MSSA MIC90 (MSSA): 0.125 µg/mL
- MRSA MIC90 [3]: >16 µg/mL
- SP MIC90 [4]: 0.5 µg/mL
- Pa MIC90 [5]: 16 µg/mL
- log reduction at 25 mg/kg [6, 12]: 0.48
- log reduction at 25 mg/kg [6, 13]: 0.24
- log reduction at 25 mg/kg [6, 14]: 0
- log reduction at 25 mg/kg [6, 15]: -1.33
- Initial Solution pH (physchem): 3.5
- Initial Solution Appearance (physchem): white, turbid, visible
- After pH Adjustment Appearance (physchem): white, cloudy, less turbid,
- After pH Adjustment pH (physchem): 1.5
- pH of final solution (physchem): 1.5
- solubility on titration with 1N HCl (physchem; pH 1.5): solubility was not reached by pH 1.5

Molecule: CCC(=O)O[C@H]1[C@H](O[C@@H]2[C@@H](C)[C@H](O[C@H]3C[C@@](C)(OC)[C@@H](O)[C@H](C)O3)[C@@H](C)C(=O)O[C@H](CC)[C@@](C)(O)[C@H](O)[C@@H](C)C(=O)[C@H](C)C[C@@]2(C)O)O[C@H](C)C[C@@H]1N(C)C [erythromycin estolate]
- solubility as fraction of that of the free base [11]: approximately 1/12

Molecule: C[C@H]1COc2c(N3CCN(C)CC3)c(F)cc3c(=O)c(C(=O)O)cn1c23.O=C(O)c1cc2ccccc2c(Cc2c(O)c(C(=O)O)cc3ccccc23)c1O [levofloxacin pamoate]
- dissolution rate (Dissolution rate studies; [17]): approximately 0.146 mg/min
- dissolution rate (Dissolution rate studies; 10-60 minutes, pH 7.4 Tris buffer): 0.0331 mg/min

Molecule: CCCCCCCCCCCCCCCCCC(=O)O.C[C@H]1COc2c(N3CCN(C)CC3)c(F)cc3c(=O)c(C(=O)O)cn1c23 [levofloxacin stearate]
- dissolution rate (Dissolution rate studies; [17]): 0.499 mg/min
- dissolution rate (Dissolution rate studies; [18]): 0.161 mg/min

Molecule: C[C@H]1COc2c(N3CCN(C)CC3)c(F)cc3c(=O)c(C(=O)O)cn1c23.O=C(O)c1ccc2ccccc2c1O [levofloxacin xinafoate]
- dissolution rate (Dissolution rate studies; [17]): approximately 1.24 mg/min
- dissolution rate (Dissolution rate studies; [18]): 0.28 mg/min

Molecule: DNase
- increase of sol elastase activity after treatment of CF sputum (elastase): 190%

B1: reduced rhTrx: stable reduced form of recombinant human thioredoxin (protein, UniProt P10599 2-105, looked up)
Thioredoxin: VKQIESKTAFQEALDAAGDKLVVVDFSATWCGPCKMIKPFFHSLSEKYSNVIFLEVDVDDCQDVASECEVKCMPTFQFFKKGQKVGEFSGANKEKLEATINELV
modifications: reduced form
- increase of sol elastase activity after treatment of CF sputum (elastase): 60%
